In general, IC50 refers to the midpoint of a concentration-inhibition curve.

Drawing on patent US5534533A, “Carboxylate derivatives exhibiting phospholipase A2 inhibitory activity” (Shionogi & Co., Ltd., priority 1993, dated 1996), this text covers IC50 for 19 compounds.

One experiment concerns the target T1, Human secretory PLA2 (Homo sapiens, UniProt P14555).
T1 sequence (P14555 21-144): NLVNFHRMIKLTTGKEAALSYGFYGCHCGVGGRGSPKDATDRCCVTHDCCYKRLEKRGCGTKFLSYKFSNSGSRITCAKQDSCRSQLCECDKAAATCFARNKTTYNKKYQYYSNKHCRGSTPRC
Kind of experiment: Secretory PLA2 inhibitory activity (diheptanoyl thio PC substrate, absorbance at 405 nm). The settings on record: diheptanoyl thio PC 1 mM, Triton X100 0.3 mM, pH 7.3, CaCl2 10 mM, 30 minutes, read-out: s-PLA2 Inhibition IC50. Type of experiment: biochemical. On the procedure: Secretory PLA2 activity was assayed according to the method described in Penynolds L. J., Hughes L. L., Dennis E. A. et al. Anal. Biochem. 201,190-197 (1992).
Diheptanoyl thiophosphatidylcholine which was prepared according to the procedure described in the literature was used as a substrate. Human secretory PLA2 was used as an enzyme. The diheptanoyl thio PC (1 mM) was reacted with the human secretory PLA2 in the presence of Triton X100 (0.3 mM) and 5,5'-dithiobis-(2-nitrobenzoic acid) (125 μM) in Tris buffer (25 mM, pH 7.3), CaCl2 (10 mM), KCI (100 mM), bovine serum albumin (1.0 mg/ml), and then the change in absorbance at 405 nm at the time of 30 minutes after the reaction was assayed.
Inhibitory activity (%) was estimated by the formula: [(the change in absorbance with the inhibitor and PLA2 ·the change in absorbance with the inhibitor and without PLA2)/(the change in absorbance without the inhibitor and with PLA2 ·the change in absorbance without the inhibitor and PLA2)]×100.
IC50 value (μM) was calculated from graph showing inhibitory values on the vertical axis and log of concentrations of the inhibitor on the horizontal axis.

Experiment [1] concerns the target T2, intracellular PLA2 (cytosolic PLA2, cPLA2) (Homo sapiens, UniProt P47712).
T2 sequence (P47712 1-749): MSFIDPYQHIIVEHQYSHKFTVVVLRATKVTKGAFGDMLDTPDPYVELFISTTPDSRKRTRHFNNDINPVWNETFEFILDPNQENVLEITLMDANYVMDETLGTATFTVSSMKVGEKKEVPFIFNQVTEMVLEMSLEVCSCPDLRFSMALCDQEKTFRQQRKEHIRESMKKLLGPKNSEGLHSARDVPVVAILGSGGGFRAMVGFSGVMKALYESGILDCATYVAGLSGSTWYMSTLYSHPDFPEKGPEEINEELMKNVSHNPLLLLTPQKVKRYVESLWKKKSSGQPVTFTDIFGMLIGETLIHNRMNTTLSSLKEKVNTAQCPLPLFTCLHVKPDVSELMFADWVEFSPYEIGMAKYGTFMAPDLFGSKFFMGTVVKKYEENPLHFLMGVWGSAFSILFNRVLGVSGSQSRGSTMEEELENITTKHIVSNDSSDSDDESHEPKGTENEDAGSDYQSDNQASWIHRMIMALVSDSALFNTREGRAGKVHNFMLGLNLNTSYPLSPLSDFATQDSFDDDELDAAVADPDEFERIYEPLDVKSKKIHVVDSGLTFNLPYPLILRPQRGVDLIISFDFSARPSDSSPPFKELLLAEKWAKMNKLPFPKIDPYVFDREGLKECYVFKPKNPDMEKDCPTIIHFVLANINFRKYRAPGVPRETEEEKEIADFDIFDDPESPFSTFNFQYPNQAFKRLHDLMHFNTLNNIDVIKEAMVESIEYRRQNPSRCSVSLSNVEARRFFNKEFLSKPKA
Kind of experiment: Intracellular PLA2 (cPLA2) inhibitory activity (14C-arachidonyl phosphatidylcholine substrate). The settings on record: 2 μM radiolabelled phosphatidylcholine, 1 μM dioleoylglycerol, 1 mM CaCl2, pH 7.4; read-out: c-PLA2 Inhibition IC50. In kind it is biochemical. On the procedure:
cPLA2 activity was assayed according to the method described in R. M. Kramer, E. F. Roberts, J. Manetta and J. E. Putnam, J. Biol. Chem., 268 (8), 5268-5272 (1991). Briefly, intracellular PLA2 activity was assayed using supersonic treated […] which contain 1-palmitoyl-2-[^14 C]arachidonyl-sn-glycero-3-phosphocholine and sn-1, 2-dioleoylglycerol at a molar ratio of 2:1. This test mixture contained 1 mM CaCl2, 2 mM dithiothreitol, 150 mM NaCl, 50 mM Hepes, pH 7.4 and 0.1 mg/ml BSA. A substrate is a 2 μM radioisotope labelled phosphatidylcholine ribosome containing 1 μM dioleoylglycerol. IC50 value is calculating in the same manner as in calculating it for secretory PLA2 inhibitory activity.

The structures appear in SMILES notation. Where a name gives a salt, the structure may show the parent alone. Where only a bound is given, the exact number is not on record here.

On to `COc1ccc(OCCCOc2c(C)c(C)c(C(=O)Oc3c(C)c(C)c(C(=O)O)c(OC)c3C)c(OC)c2C)cc1OC` [Example 20, 4-[4-[3-(3,4-Dimethoxyphenoxy)propyloxy]-2-methoxy-3,5,6-trimethylphenylcarboxy]-2-methoxy-3,5,6-trimethylbenzoic acid], for which the IC50 at Human secretory PLA2 was 11 µM; in experiment [1], 35 µM.

Turning to `COc1c(C)c(OC(=O)c2c(C)c(C)c(OCCCOc3cccc(F)c3F)c(C)c2OC)c(C)c(C)c1C(=O)O` [Example 37, 4-{4-[3-(2,3-Difluorophenoxy)propoxy]-2-methoxy-3,5,6-trimethylbenzoyloxy}-2-methoxy-3,5,6-trimethylbenzoic Acid], the IC50 on Human secretory PLA2 is 12 µM; in experiment [1] it was 6.6 µM.

As to `COc1cc(OC)cc(OCCCOc2c(C)c(C)c(C(=O)Oc3c(C)c(C)c(C(=O)O)c(OC)c3C)c(OC)c2C)c1` [Example 41, 4-{4-[3-(3,5-Dimethoxyphenoxy)propoxy]-2-methoxy-3,5,6-trimethylbenzoyloxy}-2-methoxy-3,5,6-trimethylbenzoic Acid], the IC50 at Human secretory PLA2 was found to be 7 µM; in experiment [1] it was 5.9 µM.

In the case of `COc1c(C)c(OC(=O)c2c(C)c(C)c(OCCCCCCOc3ccc(Cl)cc3)c(C)c2OC)c(C)c(C)c1C(=O)O` [Example 11, 4-[4-[6-(4-Chlorophenoxy)hexyloxy]-2-methoxy-3,5,6-trimethylphenylcarboxy]-2-methoxy-3,5,6-trimethylbenzoic acid], the figures for the IC50 (on Human secretory PLA2; in experiment [1]) were 14 µM and 4.8 µM, respectively.

On to `COc1cccc(OC)c1OCCCOc1c(C)c(C)c(C(=O)Oc2c(C)c(C)c(C(=O)O)c(OC)c2C)c(OC)c1C` [Example 40, 4-{4-[3-(2,6-Dimethoxyphenoxy)propoxy]-2-methoxy-3,5,6-trimethylbenzoyloxy}-2-methoxy-3,5,6-trimethylbenzoic Acid], for which the figures for the IC50 (at Human secretory PLA2; in experiment [1]) were 6.1 µM and 13 µM, respectively.

`COc1c(C)c(OC(=O)c2c(C)c(C)c(OCCCOc3ccc4ccccc4c3)c(C)c2OC)c(C)c(C)c1C(=O)O` [Example 19, 4-[2-Methoxy-3,5,6-trimethyl-4-[3-(2-naphthyloxy)-propyloxy]phenylcarboxy]-2-methoxy-3,5,6-trimethylbenzoic acid]: the IC50 on Human secretory PLA2 worked out at 16 µM; in experiment [1], 1.8 µM.

For the compound `COc1ccc(OCCCOc2c(C)c(C)c(C(=O)Oc3c(C)c(C)c(C(=O)O)c(OC)c3C)c(OC)c2C)cc1` [Example 17, 4-[4-[3-(4-Methoxyphenoxy)propyloxy]-2-methoxy-3,5,6-trimethylphenylcarboxy]-2-methoxy-3,5,6-trimethylbenzoic acid], the figures for the IC50 (at Human secretory PLA2; in experiment [1]) were 12 µM and 14 µM, respectively.

On to `COc1c(C)c(OC(=O)c2c(C)c(C)c(OCCCNc3ccc(C(F)(F)F)cc3)c(C)c2OC)c(C)c(C)c1C(=O)O` [Example 22, 4-[4-[3-(4-Trifluoromethylphenylamino)propyloxy]-2-methoxy-3,5,6-trimethylphenylcarboxy]-2-methoxy-3,5,6 trimethylbenzoic acid hydrochloride], for which the values for the IC50 (on Human secretory PLA2; in experiment [1]) were 42 µM and 4.3 µM, respectively.

As for `COc1c(C)c(OC(=O)c2c(C)c(C)c(OCCCN(S(C)(=O)=O)S(=O)(=O)c3ccccc3)c(C)c2OC)c(C)c(C)c1C(=O)O` [Example 52], the IC50 at Human secretory PLA2 worked out at 4.5 µM; in experiment [1], 21 µM.

On to `COc1ccccc1OCCCOc1c(C)c(C)c(C(=O)Oc2c(C)c(C)c(C(=O)O)c(OC)c2C)c(OC)c1C` [Example 39, 4-{4-[3-(2-Methoxyphenoxy)propoxy]-2-methoxy-3,5,6-trimethylbenzoyloxy}-2-methoxy-3,5,6-trimethylbenzoic Acid], for which the IC50 was 8.9 µM at Human secretory PLA2 and 12 µM in experiment [1].

Turning to `COc1c(C)c(OC(=O)c2c(C)c(C)c(OCCCNS(=O)(=O)c3ccc(F)cc3)c(C)c2OC)c(C)c(C)c1C(=O)O` [Example 56, 4-{4-[3-(4-Fluorophenyl)sulfonylaminopropoxy]-2-methoxy-3,5,6-trimethylbenzoyloxy}-2-methoxy-3,5,6 trimethylbenzoic Acid], the IC50 on Human secretory PLA2 was 14 µM; in experiment [1], greater than 50 µM.

`COc1c(C)c(OC(=O)c2c(C)c(C)c(OCCCCCCSc3ccc(F)cc3)c(C)c2OC)c(C)c(C)c1C(=O)O` [Example 5, 4-[4-[6-(4-Fluorophenylthio)hexyloxy]-2-methoxy-3,5,6-trimethylphenylcarboxy]-2-methoxy-3,5,6-trimethylbenzoic acid]: the values for the IC50 (on Human secretory PLA2; in experiment [1]) were 47 µM and 4 µM, respectively.

For the compound `COc1c(C)c(OC(=O)c2c(C)c(C)c(OCCCCCCS(=O)(=O)c3ccc(F)cc3)c(C)c2OC)c(C)c(C)c1C(=O)O` [Example 6, 4-[4-[6-(4-Fluorophenylsulfonyl)hexyloxy]-2-methoxy-3,5,6-trimethylphenylcarboxy]-2-methoxy-3,5,6-trimethylbenzoic acid], the IC50 on Human secretory PLA2 was found to be 9 µM; in experiment [1], 12 µM.

On to `COc1c(C)c(OC(=O)c2c(C)c(C)c(OCCCN3C(=O)c4ccccc4C3=O)c(C)c2OC)c(C)c(C)c1C(=O)O` [Example 64, 4-{4-[3-(1,3-Dioxo-1,3-dihydroisoindol-2-yl)-propoxy]-2-methoxy-3,5,6-trimethylbenzoyloxy}-2-methoxy-3,5,6-trimethylbenzoic Acid], for which the IC50 at Human secretory PLA2 amounted to 6.4 µM; in experiment [1], 25 µM.

Regarding `COc1c(C)c(OC(=O)c2c(C)c(C)c(OCCCN(S(=O)(=O)c3ccccc3)S(=O)(=O)c3ccccc3)c(C)c2OC)c(C)c(C)c1C(=O)O` [Example 51, 4-{4-[(3-Bisphenylsulfonylamino)propoxy]-2-methoxy-3,5,6-trimethylbenzoyloxy}-2-methoxy-3,5,6-trimethylbenzoic Acid], the IC50 on Human secretory PLA2 came to 2.1 µM; in experiment [1], 4.2 µM.

As to `COc1c(C)c(OC(=O)c2c(C)c(C)c(OCc3ccccc3)c(C)c2OC)c(C)c(C)c1C(=O)O` [Example 9, 4-[4-Benzyloxy-2-methoxy-3,5,6-trimethylphenylcarboxy)2-methoxy-3,5,6-trimethylbenzoic acid], the figures for the IC50 (on Human secretory PLA2; in experiment [1]) were 45 µM and 33 µM, respectively.

For the compound `COc1c(C)c(OC(=O)c2c(C)c(C)c(OCCCOc3ccc(C(=O)O)cc3)c(C)c2OC)c(C)c(C)c1C(N)=O` [Example 47, 4-{4-[3-(4-Carboxyphenoxy)propoxy]-2-methoxy-3,5,6-trimethylbenzoyloxy}-2-methoxy-3,5,6-trimethylbenzamide], the IC50 was found to be 0.22 µM on Human secretory PLA2 and 22 µM in experiment [1].

For `COc1c(C)c(OC(=O)c2c(C)c(C)c(OCCCN(C)S(=O)(=O)c3ccc(F)cc3)c(C)c2OC)c(C)c(C)c1C(=O)O` [Example 58, 4-{4-[3-Methyl-(4-fluorophenyl)sulfonylaminopropoxy]-2-methoxy-3,5,6-trimethylbenzoyloxy}-2-methoxy-3,5,6-trimethylbenzoic Acid], the values for the IC50 (at Human secretory PLA2; in experiment [1]) were 5.3 µM and 26 µM, respectively.

As to `COC(=O)c1ccc(OCCCOc2c(C)c(C)c(C(=O)Oc3c(C)c(C)c(C(=O)O)c(OC)c3C)c(OC)c2C)cc1` [Example 43, 4-{4-[3-(4-Methoxycarbonylphenoxy)propoxy]-2-methoxy-3,5,6-trimethylbenzoyloxy}-2-methoxy-3,5,6 trimethylbenzoic Acid], the IC50 is 5.1 µM at Human secretory PLA2 and 14 µM in experiment [1].
